Five molecules from US12649730B2 (MITOIMMUNE THERAPEUTICS INC., priority 2021, dated 2026) can be followed below.

Holding throughout (format): physicochemical
Data set [1] in a line: Stability testing of 5 crystalline forms over 8 weeks at harsh conditions (40° C., 75% relative humidity). The procedure: Stability testing was carried out over 8 weeks at harsh conditions (40° C., 75%, relative humidity) on the 5 crystalline forms obtained in Example 3.
The nature of data set [2]: Water sorption and desorption study, DVS cycle. The following applies: 25° C. The procedure:
Using SMS DVS Advantage 1, 10 mg sample was placed in a mesh stainless steel basket. The overall test cycle comprises scanning two times (sorption and desorption) at 10% RH intervals in a 40 to 90% range (60 to 360 minutes for each humidity level) at a constant temperature (25° C.). Using SMS DVS Advantage 1, 10 mg of Crystalline Form A was placed in a mesh stainless steel basket. The overall test cycle comprises scanning two times (sorption and desorption) at 10% RH intervals in a 40 to 90% range (60 to 360 minutes for each humidity level) at a constant temperature (25° C.). Approximately 0.7% weight increase and absorption and loss relative to sorption level indicates a non-hygroscopic sample. FIG. 38 is an isotherm curve for Crystalline Form A (weight change % v. RH %), and a kinetic curve of weight change % v. time and relative humidity %.

The nature of data set [3]: Pressurization test for Crystalline Form A. The conditions noted are these: 3 minutes each at 2, 3 and 4 MPa. On the procedure:
100 mg of Crystalline Form A was placed in a die cavity, then made into tablets by pressing for 3 minutes each at pressures of 2, 3 and 4 MPa using an upper punch.

Data set [4] can be described thus: Grinding test for Crystalline Form A. On the procedure: 30 mg Crystalline Form A was manually ground for 5 minutes in a mortar and pestle. […] 30 mg of Crystalline Form A and […] of EtOH were placed in a mortar and pestle, and manually ground for 5 minutes. […] 30 mg of Crystalline Form A and […] of H2O were placed in a mortar and pestle, and manually ground for 5 minutes.

Setting [5] is: 40° C./75% RH, 1 week, listed as Crystalline Form XII.
Setting [6] is: 40° C./75% RH, 2 weeks, listed as Crystalline Form XII.
Where [7] appears, read: 40° C./75% RH, 8 weeks, listed as Crystalline Form XII.
The mark [8] stands for this setting: Initial, listed as Crystalline Form XII.

“Also recorded” adds a separate entry of the source.

Take `O=S1(=O)CCN(Cc2cc(NC3CCOCC3)c3[nH]c(-c4ccccc4)cc3c2)CC1` [Crystalline Form A, 5-[(1,1-dioxido-4-thiomorpholinyl)methyl]-2-phenyl-N-(tetrahydro-2H-pyran-4-yl)-1H-indol-7-amine]: the “Stability judged among the 5 crystalline forms” value in data set [1] (40° C., 75% relative humidity, 8 weeks) was “most stable crystalline form”. For the same molecule, the Assay in data set [1] (setting [5]) came to 101.17%; in data set [1] (setting [6]), 102.12%; in data set [1] (setting [7]) it was 102.17%; in data set [1] (Initial) it was 100.00%. The Purity is recorded as 99.19% in data set [1] (setting [5]), 98.69% in data set [1] (setting [6]), 99.88% in data set [1] (setting [7]) and 98.85% in data set [1] (setting [8]). In addition, the “XRPD Patterns” value in data set [1] (setting [5]), in data set [1] (setting [6]), in data set [1] (setting [7]) and in data set [1] (setting [8]) was “Pattern A” throughout. In addition, in data set [2] (DVS, 40 to 90% RH), the Hygroscopicity result is recorded as “non-hygroscopic”. In addition, in data set [2] (DVS, 40 to 90% RH), the “Weight increase (water sorption)” value is recorded as “Approximately 0.7%”. Besides, the “XRPD analysis after DVS” value in data set [2] (after DVS cycle) is listed as “no change in crystalline form”. Besides, the “XRPD analysis after pressing into tablets and grinding” value in data set [3] was “no changes”. For the same molecule, in data set [4] (manually ground 5 minutes in EtOH), the “XRPD analysis after wet grinding in EtOH” value is “no change”. Also, the “XRPD analysis after wet grinding in H2O” value in data set [4] (manually ground 5 minutes in H2O) is on record as “no change”. In addition, in data set [4] (manually ground 5 minutes, mortar and pestle), the “XRPD analysis after dry grinding” value is “no change”.

In the case of `O=S1(=O)CCN(Cc2cc(NC3CCOCC3)c3[nH]c(-c4ccccc4)cc3c2)CC1` [Crystalline Form XI, 5-[(1,1-dioxido-4-thiomorpholinyl)methyl]-2-phenyl-N-(tetrahydro-2H-pyran-4-yl)-1H-indol-7-amine], the Assay was 95.79% in data set [1] (40° C./75% RH, 1 week); 105.59% in data set [1] (40° C./75% RH, 2 weeks); 103.58% in data set [1] (40° C./75% RH, 4 weeks); 104.04% in data set [1] (40° C./75% RH, 8 weeks); 100.00% in data set [1] (Initial). Also, the Purity is on record as 99.70% in data set [1] (40° C./75% RH, 1 week); 99.36% in data set [1] (40° C./75% RH, 2 weeks); 99.56% in data set [1] (40° C./75% RH, 4 weeks); 99.58% in data set [1] (40° C./75% RH, 8 weeks); 99.55% in data set [1] (Initial). Besides, the “XRPD Patterns” value in data set [1] (40° C./75% RH, 4 weeks) is recorded as “Pattern A”; in data set [1] (Initial), “Pattern XI”.

For the molecule `O=S1(=O)CCN(Cc2cc(NC3CCOCC3)c3[nH]c(-c4ccccc4)cc3c2)CC1` [Crystalline Form VIII, 5-[(1,1-dioxido-4-thiomorpholinyl)methyl]-2-phenyl-N-(tetrahydro-2H-pyran-4-yl)-1H-indol-7-amine], the Assay in data set [1] (40° C./75% RH, 1 week) was 106.67%; in data set [1] (40° C./75% RH, 2 weeks), 102.74%; in data set [1] (40° C./75% RH, 4 weeks) it was 105.56%; in data set [1] (40° C./75% RH, 8 weeks), 107.08%; in data set [1] (Initial), 100.00%. Further, the Purity in data set [1] (40° C./75% RH, 1 week) was 99.95%; in data set [1] (40° C./75% RH, 2 weeks), 99.91%; in data set [1] (40° C./75% RH, 4 weeks), 99.83%; in data set [1] (40° C./75% RH, 8 weeks) it was 100.00%; in data set [1] (Initial), 99.94%. The “XRPD Patterns” value in data set [1] (40° C./75% RH, 1 week) is on record as “Pattern A”; in data set [1] (40° C./75% RH, 2 weeks) it was “Pattern A”; in data set [1] (40° C./75% RH, 4 weeks), “Pattern A”; in data set [1] (40° C./75% RH, 8 weeks), “converted into Crystalline Form XII; also recorded: Pattern A”; in data set [1] (Initial), “Pattern VIII”.

With `O=S1(=O)CCN(Cc2cc(NC3CCOCC3)c3[nH]c(-c4ccccc4)cc3c2)CC1` [Crystalline Form IV, 5-[(1,1-dioxido-4-thiomorpholinyl)methyl]-2-phenyl-N-(tetrahydro-2H-pyran-4-yl)-1H-indol-7-amine], the Assay turned out to be 101.81% in data set [1] (40° C./75% RH, 1 week); 105.36% in data set [1] (40° C./75% RH, 2 weeks); 99.58% in data set [1] (40° C./75% RH, 4 weeks); 104.25% in data set [1] (40° C./75% RH, 8 weeks); 100.00% in data set [1] (Initial). Besides, the Purity in data set [1] (40° C./75% RH, 1 week) was 99.73%; in data set [1] (40° C./75% RH, 2 weeks) it was 99.88%; in data set [1] (40° C./75% RH, 4 weeks), 99.87%; in data set [1] (40° C./75% RH, 8 weeks), 99.86%; in data set [1] (Initial) it was 99.87%. Moreover, the “XRPD Patterns” value was “Pattern A” in data set [1] (40° C./75% RH, 1 week); “Pattern A” in data set [1] (40° C./75% RH, 2 weeks); “Pattern A” in data set [1] (40° C./75% RH, 4 weeks); “converted into Crystalline Form XII; also recorded: Pattern A” in data set [1] (40° C./75% RH, 8 weeks); “Pattern IV” in data set [1] (Initial).

In the case of `O=S1(=O)CCN(Cc2cc(NC3CCOCC3)c3[nH]c(-c4ccccc4)cc3c2)CC1` [Crystalline Form V, 5-[(1,1-dioxido-4-thiomorpholinyl)methyl]-2-phenyl-N-(tetrahydro-2H-pyran-4-yl)-1H-indol-7-amine], the Assay in data set [1] (40° C./75% RH, 1 week) is reported as 103.86%; in data set [1] (40° C./75% RH, 2 weeks), 103.99%; in data set [1] (40° C./75% RH, 4 weeks), 98.50%; in data set [1] (40° C./75% RH, 8 weeks) it was 104.75%; in data set [1] (Initial), 100.00%. Besides, the Purity in data set [1] (40° C./75% RH, 1 week) is 99.60%; in data set [1] (40° C./75% RH, 2 weeks), 99.21%; in data set [1] (40° C./75% RH, 4 weeks), 99.16%; in data set [1] (40° C./75% RH, 8 weeks) it was 99.36%; in data set [1] (Initial), 99.37%. Moreover, the “XRPD Patterns” value in data set [1] (40° C./75% RH, 1 week) was “Pattern A”; in data set [1] (40° C./75% RH, 2 weeks) it was “Pattern A”; in data set [1] (40° C./75% RH, 4 weeks), “Pattern A”; in data set [1] (40° C./75% RH, 8 weeks), “converted into Crystalline Form XII; also recorded: Pattern A”; in data set [1] (Initial), “Pattern V”.
